Experiment [1] concerns unselected cord blood mononuclear cell population. Nature of the experiment: Lymphocyte subsets (FACS) in unselected cord blood mononuclear cell cultures. In kind it is cell-based, human. The note with it: three weeks. The procedure: 1. Total mononuclear cell fraction was cultured in culture bags (American Fluoroseal Co. Gaithersburg, Md., USA), T-Flasks or 24 well plates at a concentration of 0.5−2×10^6 cells/ml in MEMα comprising 10% FCS or CellGro SCGM (Cell Genix) comprising 5-10% Human Serum/LiforCell® FBS Replacement (Lifeblood Products) containing the following human recombinant cytokines:, interleukin-2 (IL-2) (5-50 ng/ml), interleukin-15 (IL-15), interleukin7 (IL7), interleukin 21 (IL21), FLT-3 or SCF or FLT3 and SCF (Perpo Tech, Inc., Rocky Hill, N.J., USA), with or without OKT-3 (10-50 ng/ml), with or without nicotinamide (0.5-10 mM), and incubated at 37° C. in a humidified atmosphere of 5% CO2 in air. When OKT-3 was used in the culture the cultures were centrifuged after 5-7 days and the cells were resuspended with the same medium excluding the OKT-3. All cultures are topped weekly or twice a week with the same volume of fresh medium containing the growth factors with or without nicotinamide. For counting, the cells were stained with trypan blue. At various time points, samples were taken to assay the relative fractions of NK cells, CD56+CD3−, CD56+CD3+, CD34+CD56+, CD56+CD16+ and/or CD56+ NKG2A cells. Cell morphology was determined on cytospin (Shandon, Pittsburgh, Pa., USA) prepared smears stained with May-Grunwald/Giemsa solutions.
The cells were washed with a PBS solution containing 1% BSA, and stained (at 4° C. for 30 min) with fluorescein isothiocyanate (FITC)- or phycoerythrin (PE)-conjugated antibodies or allophycocyanin (APC). The cells were then washed in the above buffer and analyzed using a FACScalibur® flow cytometer (Becton Dickinson, San Jose, Calif., USA). The cells were passed at a rate of up to 1000 cells/second, using a 488 nm or 661 nm argon laser beam as the light source for excitation. Emission of 10^4 cells was measured using logarithmic amplification, and analyzed using the CellQuest software (Becton Dickinson). Cells stained with FITC, PE and APC-conjugated isotype control antibodies were used to determine background fluorescence. […]

The test system of experiment [2] is monocyte (CD14+) and granulocyte (CD15+) cells. Description: Contaminating monocytes and granulocytes in NK cell cultures (FACS). In kind it is cell-based, human. The note with it: 14 days culture. The procedure:
For depletion procedure, total nuclear cells from umbilical cord blood (CB), bone marrow (BM) or peripheral blood (PB) cells were layered on a Ficoll-Hypaque gradient (1.077 g/mL; Sigma), and centrifuged at 800×g for 30 minutes for separation of the mononuclear cells. The cells in the interface layer were collected and washed three times in phosphate-buffered saline (PBS) (Biological Industries, Israel) containing 0.5% HSA. Optionally, cells are not separated on the Ficoll-Hypaque gradient but washed three times in phosphate-buffered saline (PBS) (Biological Industries) containing 0.5% HSA (“total mononuclear fraction”). CD3 cells were depleted using the CD3 cell isolation kit (Miltenyi Biotec Bergisch, Gladbach, Germany) and the entire CD3 negative cell fraction was cultured. […] After negative depletion the cells were counted and characterized by FACS analysis.
3. […] To estimate number of cells in culture, cell samples were counted following staining with trypan blue. […]
Methods for expansion of NK cells in culture, for use in the clinical setting, must be somewhat specific for the NK cell population, lest contaminating non-NK cells also proliferate due to cell culture conditions. The effect of nicotinamide on non-NK cells was evaluated by monitoring monocyte and granulocyte populations in NK cell cultures exposed to 2.5, 5 and 7.5 mM nicotinamide.

Setting [3] is: 0.5, 1, 2.5 and 5 mM nicotinamide.

Regarding `NC(=O)c1cccnc1` [nicotinamide], in experiment [1] (setting [3]), the “proliferation in culture of CD56+/CD3- NK cells” value is “dose-dependent nicotinamide-induced enhancement of proliferation” and the “proliferation in culture of CD56+/CD45+ cells” value is “dose-dependent nicotinamide-induced enhancement of proliferation”. Further, in experiment [1] (0.5 to 5 mM nicotinamide, dose-dependent), the “CD3+ CD56- T cell growth” value is on record as “inhibition”. Besides, in experiment [2], the “suppression of CD14 proliferation” value was “greater than 50%” and the “suppression of granulocyte proliferation” value is on record as “greater than 50%”.

These data come from patent publication US20130011376A1, “Methods for Enhancing Natural Killer Cell Proliferation and Activity” (GAMIDA CELL LTD., priority 2009, published 2013).
